One test concerns HepG2. Put plainly: Antiproliferative activity against human HepG2 cells measured after 48 hrs by MTT assay. It is filed as functional, cell-based. As to conditions: HepG2, 48 h. (In general: Formazan colour is commonly taken as a measure of viable cells.)
A short description of test [1]: Antiproliferative activity against human PC3 cells measured after 48 hrs by MTT assay. The test is classed as functional, cell-based. The settings on record: PC-3, 48 h.
The nature of test [2]: Antiproliferative activity against human HCT116 cells measured after 48 hrs by MTT assay. It is filed as functional, cell-based. As to conditions: HCT-116, 48 h.
The subject of test [3] is HeLa. Put plainly: Antiproliferative activity against human HeLa cells measured after 48 hrs by MTT assay. It is filed as functional, cell-based.
For another test, the system named is HEK293. Put plainly: Cytotoxicity against HEK293 cells measured after 48 hrs by MTT assay. As to conditions: Homo sapiens, HEK293, 48 h. It is filed as cell-based.
The test system of test [4] is HeLa. The test is described as follows: Induction of cell cycle arrest in human HeLa cells assessed as accumulation at S phase at 2 uM measured after 12 to 18 hrs by […] cell sorting analysis (reference value: 19.02%). It is filed as functional.
Test [5] has as its system HeLa. Put plainly: Induction of cell cycle arrest in human HeLa cells assessed as accumulation at S phase at 4 uM measured after 12 to 18 hrs by […] cell sorting analysis (reference value: 19.02%). It is filed as functional.
Test [6] concerns HeLa. The test is described as follows: Induction of cell cycle arrest in human HeLa cells assessed as accumulation at G0/G1 phase at 8 uM measured after 12 to 18 hrs by […] cell sorting analysis (reference value: 64.31%). The test is classed as functional.
For test [7], the system named is HeLa. Put plainly: Induction of cell cycle arrest in human HeLa cells assessed as accumulation at G2/M phase at 8 uM measured after 12 to 18 hrs by […] cell sorting analysis (reference value: 16.67%). The test is classed as functional.
For test [8], the system named is HeLa. The test is described as follows: Induction of cell cycle arrest in human HeLa cells assessed as accumulation at G0/G1 phase at 4 uM measured after 12 to 18 hrs by […] cell sorting analysis (reference value: 64.31%). The test is classed as functional.
Test [9] concerns HeLa. Put plainly: Induction of cell cycle arrest in human HeLa cells assessed as accumulation at G2/M phase measured after 18 hrs by […] cell sorting analysis. It is filed as functional, cell-based.
Test [10] concerns HeLa. Put plainly: Induction of cell cycle arrest in human HeLa cells assessed as accumulation at G2/M phase at 2 uM measured after 12 to 18 hrs by […] cell sorting analysis (reference value: 16.67%). It is filed as functional.
The test system of test [11] is HeLa. The test is described as follows: Induction of cell cycle arrest in human HeLa cells assessed as accumulation at S phase at 8 uM measured after 12 to 18 hrs by […] cell sorting analysis (reference value: 19.02%). It is filed as functional.
The subject of test [12] is HeLa. Put plainly: Induction of cell cycle arrest in human HeLa cells assessed as accumulation at G0/G1 phase at 2 uM measured after 12 to 18 hrs by […] cell sorting analysis (reference value: 64.31%). It is filed as functional.
The subject of test [13] is HeLa. The test is described as follows: Induction of cell cycle arrest in human HeLa cells assessed as accumulation at G2/M phase at 4 uM measured after 12 to 18 hrs by […] cell sorting analysis (reference value: 16.67%). It is filed as functional.

IC50 and Activity data for 25 compounds are collected here from ChEMBL document CHEMBL3822404, “Design, synthesis and biological evaluation of novel 3-alkylsulfanyl-4-amino-1,2,4-triazole derivatives” (Bioorg Med Chem Lett, 2016).

Structures are written as SMILES.

In general, IC50 refers to the concentration that inhibits the measured activity by half. Consider `COc1ccc(CNC(=O)CSc2nnc(-c3cc(OC)c(OC)c(OC)c3)n2N)cc1OC`, for which the IC50 (in the test on HepG2; in test [1]; in test [2]; in the test on HeLa [3]) was greater than 100 µM in each case.

As for `COc1cc(-c2nnc(SCC(=O)Nc3ccccc3F)n2N)cc(OC)c1OC`, the IC50 is greater than 100 µM in the test on HEK293; 18.7 µM in the test with HepG2; 36.7 µM in [1]; 1.16 µM in [2]; 38.2 µM in the test with HeLa [3].

For `COc1cc(-c2nnc(SCC(=O)Nc3ccccc3)n2N)cc(OC)c1OC`, the IC50 is 49.9 µM with HepG2, 37.9 µM in test [1], 1.73 µM in [2] and 8.28 µM in the test on HeLa [3].

For `COc1cc(-c2nnc(SCC(=O)NCCc3ccc(F)cc3)n2N)cc(OC)c1OC`, the IC50 was greater than 100 µM in the test on HepG2, 56.1 µM in test [1], greater than 100 µM in test [2] and 66.5 µM in the test with HeLa [3].

As for `COc1cc(-c2nnc(SCC(=O)NCc3ccc(Cl)cc3)n2N)cc(OC)c1OC`, the IC50 (with HepG2; in test [1]; in test [2]; with HeLa [3]) was greater than 100 µM throughout.

With `O=c1[nH]cc(F)c(=O)[nH]1` [FLUOROURACIL], the IC50 in test [1] worked out at 57 µM; in test [2], 68.7 µM; in the test with HeLa [3] it was 57.2 µM.

With `COc1cc(-c2nnc(SCC(=O)Nc3ccc(C)cc3)n2N)cc(OC)c1OC`, the IC50 with HEK293 was 79.4 µM; in the test with HepG2, greater than 100 µM; in test [1] it was 43.1 µM; in [2], 3.45 µM; with HeLa [3], 4.77 µM.

`COc1cc(-c2nnc(SCC(=O)NCc3ccc(C)cc3)n2N)cc(OC)c1OC`: the IC50 in the test with HepG2 is greater than 100 µM; in [1], 92.8 µM; in test [2] it was greater than 100 µM; in the test on HeLa [3], greater than 100 µM.

In the case of `COc1cc(-c2nnc(SCC(=O)Nc3ccccc3C)n2N)cc(OC)c1OC`, the IC50 (in the test with HepG2; in test [1]; in test [2]; with HeLa [3]) was greater than 100 µM each time.

With `COc1cc(-c2nnc(SCC(=O)NCCc3ccc(Cl)cc3)n2N)cc(OC)c1OC`, the IC50 with HepG2 was greater than 100 µM; in test [1], greater than 100 µM; in [2] it was 39.6 µM; with HeLa [3], 79.9 µM.

`COc1cc(-c2nnc(SCC(=O)c3ccccc3F)n2N)cc(OC)c1OC`: the IC50 is 22.6 µM in the test with HepG2, 43.1 µM in [1], 10.8 µM in [2] and 80.1 µM in the test with HeLa [3].

With `COc1cc(-c2nnc(SCC(=O)c3ccc(C(F)(F)F)cc3)n2N)cc(OC)c1OC`, the 50% inhibitory concentration (IC50) was greater than 100 µM in the test on HepG2, greater than 100 µM in test [1], 16.7 µM in [2] and 3.38 µM in the test with HeLa [3].

In the case of `COc1cc(-c2nnc(SCC(=O)c3ccc(F)c(F)c3)n2N)cc(OC)c1OC`, the IC50 is greater than 100 µM in the test with HepG2, greater than 100 µM in [1], 10.4 µM in [2] and greater than 100 µM in the test with HeLa [3].

As to `COc1cc(-c2nnc(SCC(=O)c3cccc(Br)c3)n2N)cc(OC)c1OC`, the IC50 with HepG2 is 56 µM; in [1], greater than 100 µM; in [2], 5.32 µM; with HeLa [3], 77.5 µM.

As to `COc1cc(-c2nnc(SCC(=O)c3ccc(Cl)cc3)n2N)cc(OC)c1OC`, the IC50 with HepG2 was greater than 100 µM; in test [1], greater than 100 µM; in test [2] it was 7.5 µM; with HeLa [3], 13.1 µM.

With `COc1cc(NC(=O)CSc2nnc(-c3cc(OC)c(OC)c(OC)c3)n2N)cc(OC)c1OC`, the IC50 (in the test with HepG2; in [1]; in test [2]; in the test with HeLa [3]) was greater than 100 µM in each case.

As for `COc1ccc(CCNC(=O)CSc2nnc(-c3cc(OC)c(OC)c(OC)c3)n2N)cc1`, the IC50 is greater than 100 µM with HepG2, 73.6 µM in test [1], greater than 100 µM in [2] and greater than 100 µM in the test on HeLa [3].

For `COc1cc(-c2nnc(SCC(=O)NCCc3ccc(C)cc3)n2N)cc(OC)c1OC`, the IC50 is greater than 100 µM in the test on HepG2, 41.3 µM in test [1], greater than 100 µM in [2] and greater than 100 µM in the test with HeLa [3].

For `COc1ccc(C(=O)CSc2nnc(-c3cc(OC)c(OC)c(OC)c3)n2N)cc1`, the half-maximal inhibitory concentration (IC50) with HEK293 is 100 µM; in the test on HepG2 it was greater than 100 µM; in test [1] it was 97.9 µM; in test [2], 1.24 µM; with HeLa [3], 17.4 µM.

Consider `COc1cc(-c2nnc(SCC(=O)c3ccc(C)cc3)n2N)cc(OC)c1OC`, for which the Activity is 14.07% in the test with HeLa [4]; 17.42% in the test on HeLa [5]; 7.37% in the test with HeLa [6]; 78.81% in the test with HeLa [7]; 12.41% in the test on HeLa [8]; “Dose-dependent effect” in the test with HeLa [9]. Also, the Activity is reported as 32.55% with HeLa [10], 13.81% in the test with HeLa [11], 53.39% in the test with HeLa [12] and 70.18% in the test on HeLa [13]. The IC50 in the test on HEK293 was 100 µM; in the test on HepG2 it was greater than 100 µM; in test [1] it was 31.3 µM; in test [2] it was 0.37 µM; in the test on HeLa [3], 2.94 µM.

Take `COc1cc(-c2nnc(SCC(=O)c3ccc(F)cc3)n2N)cc(OC)c1OC`: the IC50 in the test on HepG2 was 90.4 µM; in test [1], greater than 100 µM; in test [2], 3.23 µM; in the test with HeLa [3] it was 20.9 µM.

As for `COc1cc(-c2nnc(SCC(=O)c3ccc(Br)cc3)n2N)cc(OC)c1OC`, the IC50 is 92.5 µM in the test on HepG2, greater than 100 µM in [1], 9.23 µM in test [2] and 10.4 µM in the test on HeLa [3].

In the case of `COc1cc(-c2nnc(SCC(=O)NCCc3ccccc3)n2N)cc(OC)c1OC`, the IC50 in the test with HepG2 was greater than 100 µM; in test [1], 80.5 µM; in test [2] it was greater than 100 µM; in the test on HeLa [3], greater than 100 µM.

For the compound `COc1cccc(NC(=O)CSc2nnc(-c3cc(OC)c(OC)c(OC)c3)n2N)c1`, the IC50 was 100 µM with HEK293; greater than 100 µM in the test on HepG2; greater than 100 µM in [1]; 0.68 µM in [2]; 4.02 µM in the test with HeLa [3].

In the case of `COc1cc(-c2nnc(SCC(=O)c3ccccc3)n2N)cc(OC)c1OC`, the IC50 in the test on HepG2 is 7.8 µM; in [1], greater than 100 µM; in test [2], 53 µM; in the test on HeLa [3] it was greater than 100 µM.
